Laboratory results: BindingDB's records for doi:10.7270/Q28S4S3D (n/a, 1997)

Biological target: T1, E-selectin (Homo sapiens, UniProt P16581)
T1 sequence (P16581 whole entry): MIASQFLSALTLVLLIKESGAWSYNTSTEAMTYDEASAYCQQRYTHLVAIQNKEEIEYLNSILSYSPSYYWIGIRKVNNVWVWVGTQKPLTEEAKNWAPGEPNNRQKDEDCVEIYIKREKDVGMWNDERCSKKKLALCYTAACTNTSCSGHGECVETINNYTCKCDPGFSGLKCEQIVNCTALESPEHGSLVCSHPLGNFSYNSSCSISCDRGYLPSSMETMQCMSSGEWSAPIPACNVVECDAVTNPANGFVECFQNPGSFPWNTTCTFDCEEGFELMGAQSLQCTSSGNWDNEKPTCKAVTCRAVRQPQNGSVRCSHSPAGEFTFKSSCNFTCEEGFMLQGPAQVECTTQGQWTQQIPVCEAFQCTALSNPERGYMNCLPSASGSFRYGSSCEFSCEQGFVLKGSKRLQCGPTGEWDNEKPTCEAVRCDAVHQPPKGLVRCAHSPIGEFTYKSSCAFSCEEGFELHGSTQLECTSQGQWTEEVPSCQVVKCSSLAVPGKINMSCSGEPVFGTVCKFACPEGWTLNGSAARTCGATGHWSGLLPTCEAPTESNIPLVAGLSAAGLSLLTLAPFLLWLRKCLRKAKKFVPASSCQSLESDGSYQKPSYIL
Test: Tested in vitro to inhibit cell adhesion of HL-60 cells to recombinant human soluble Selectin E

Row | IC50 [µM] | Structure (SMILES)
1 | 90.2 | C=CC(=O)NCCCCCCO[C@@H]1O[C@@H](CO)[C@@H](O[C@@H]2O[C@@H](CO)[C@H](O)[C@H](O[C@]3(C(=O)O)C[C@@H](O)[C@@H](NC(C)=O)[C@H]([C@H](O)[C@H](O)CO)O3)[C@@H]2O)[C@H](O[C@@H]2O[C@@H](C)[C@@H](O)[C@H](O)[C@@H]2O)[C@@H]1NC(=O)c1ccc2ccccc2c1
2 | 1760 | CCO[C@@H]1O[C@@H](CO)[C@@H](O[C@@H]2O[C@@H](CO)[C@H](O)[C@H](O[C@]3(C(=O)O)C[C@@H](O)[C@@H](NC(C)=O)[C@H]([C@H](O)[C@H](O)CO)O3)[C@@H]2O)[C@H](O[C@@H]2O[C@@H](C)[C@@H](O)[C@H](O)[C@@H]2O)[C@@H]1NC(C)=O
